From US20130178413A1, “HCV NS3 PROTEASE INHIBITORS” (priority 2010, published 2013)
Read-outs that look alike come from different tables or passages of the source.

Key:
NS3/4A protease gt 1b = NS3/4A protease gt 1b (Hepatitis C virus genotype 1b, UniProt P26663); experiment: HCV NS3 protease time-resolved fluorescence (TRF) assay, NS3/4A inhibitory activity (Ki), gt 1b; assay type: biochemical; conditions: genotype 1b NS3/4A; read-out: Enzyme Activity gt 1b Ki
Experimental: (§1) The HCV NS3 protease inhibitory activity of the present compounds may be tested using assays known in the art. One such assay is HCV NS3 protease time-resolved fluorescence (TRF) assay as described below and in International Patent Application Publication WO2006/102087. Other examples of such assays are described in e.g., International Patent Application Publication WO2005/046712. HCV NS3 protease inhibitors, such as those described herein have a Ki less than 50 μM, such as less than 10 μM, and less than 100 nM. Ki is determined by an NS3 protease assay. The assay is performed in a final volume of 100 μl in assay buffer containing 50 mM HEPES, pH 7.5, 150 mM NaCl, 15% glycerol, 0.15% TRITON X-100, 10 mM DTT, and 0.1% PEG 8000. NS3 protease is pre-incubated with various concentrations of inhibitors in DMSO for 30 minutes. The reaction is initiated by adding the TRF peptide substrate (final concentration 100 nM). NS3 mediated hydrolysis of the substrate is quenched after 1 hour at room temperature with 100 μl of 500 mM MES, pH 5.5. Product fluorescence is detected using either a VICTOR V2 or FUSION fluorophotometer (Perkin Elmer Life and Analytical Sciences) with excitation at 340 nm and emission at 615 nm with a 400 μs delay. Testing concentrations of different enzyme forms are selected to result in a signal to background ratio (S/B) of 10-30. IC50 values are derived using a standard four-parameter fit to the data. Ki values are derived from IC50 values using the following formula,
(§2) IC50=Ki(1+[S]/KM), Eqn (1),
(§3) where [S] is the concentration of substrate peptide in the reaction and KM is the Michaelis constant. See P. Gallinari et al., 38 BIOCHEM. 5620-32 (1999); P. Gallinari et al., 72 J. VIROL. 6758-69 (1998); M. Taliani et al., 240 ANAL. BIOCHEM. 60-67 (1996).
(§4) One such assay is HCV NS3 protease time-resolved fluorescence (TRF) assay as described below and in Mao et al., Anal Biochem. 373:1-8, 2008 and International Patent Application Publication WO 2006/102087. A NS3 protease assay can be performed, for example, in a final volume of 100 μl assay buffer containing 50 mM HEPES, pH 7.5, 150 mM NaCl, 15% glycerol, 0.15% TRITON X-100, 10 mM DTT, and 0.1% PEG 8000. NS3 and NS4A protease is pre-incubated with various concentrations of inhibitors in DMSO for 30 minutes. The reaction is initiated by adding the TRF peptide substrate (final concentration 100 nM). NS3 mediated hydrolysis of the substrate is quenched after 1 hour at room temperature with 100 μl of 500 mM MES, pH 5.5. Product fluorescence is detected using either a VICTOR V2 or FUSION fluorophotometer (Perkin Elmer Life and Analytical Sciences) with excitation at 340 nm and emission at 615 nm with a 400 μs delay. Testing concentrations of different enzyme forms are selected to result in a signal to background ratio (S/B) of 10-30. IC50 values are derived using a standard four-parameter fit to the data. Ki values are derived from IC50 values using the following formula,
as §3, with “(1996); Mao et al., Analytical Biochemistry 373: 1-8, 2008. Measuring Compound Inhibitory Potency (Replicon EC50 (nM))” for “(1996).”

NS3/4A protease gt 3a = NS3/4A protease gt 3a (Hepatitis C virus genotype 3a, UniProt Q81258); experiment: HCV NS3 protease time-resolved fluorescence (TRF) assay, NS3/4A inhibitory activity (Ki), gt 3a; assay type: biochemical; conditions: genotype 3a NS3/4A; read-out: Enzyme Activity gt 3a Ki
Experimental: as §1, §2, §3, §4
as §3, with “(1996); Mao et al., Analytical Biochemistry 373: 1-8, 2008. Measuring Compound Inhibitory Potency (Replicon EC50 (nM))” for “(1996).”

gt 1b Replicon = experiment: HCV replicon assay, compound inhibitory potency (Replicon EC50); assay type: cell-based; conditions: Hepatitis C virus, GT1B
Experimental: Measurement of inhibition by compounds was performed using the HCV replicon system. Several different replicons encoding different HCV genotypes or mutations were used. In addition, potency measurements were made using different formats of the replicon assay, including different ways of measurements and different plating formats. See Jan M. Vrolijk et al., A replicons-based bioassay for the measurement of interferons in patients with chronic hepatitis C, 110 J. VIROLOGICAL METHODS 201 (2003); Steven S. Carroll et al., Inhibition of Hepatitis C Virus RNA Replication by 2′-Modified Nucleoside Analogs, 278(14) J. BIOLOGICAL CHEMISTRY 11979 (2003). However, the underlying principles are common to all of these determinations, and are outlined below.
Stable neomycin phosphotransferase encoding replicon-harboring cell lines were used, so all cell lines were maintained under G418 selection prior to the assay. In some cases the cell lines encoded a luciferase:Neor fusion and could be assayed either directly by determination of RNA copy number, or indirectly through measurement of the luciferase activity.
To initiate an assay, replicon cells were plated in the presence of a dilution series of test compound in the absence of G418. Typically, the assays were performed in a 96-well plate format for manual operation, or a 384 well plate in an automated assay. Replicon cells and compound were incubated for 24-48 hours, depending on the assay. At the end of the assay, cells are washed free of media and compound and then lysed. For direct quantitation, RNA levels were measured by ^32P-probe hybridization and protection, or in a TAQMAN based assay and normalized to cellular cyclophilin A RNA levels. In some cases, luciferase activity was measured using a conventional luciferase assay. In all cases EC50 determinations were calculated as a percent of a DMSO control by fitting the data to a four parameter fit function.

[1] = molecular target: NS3/4A protease gt 1b A156V (Hepatitis C virus genotype 1b, UniProt P26663, A1182V); experiment: HCV NS3 protease time-resolved fluorescence (TRF) assay, NS3/4A inhibitory activity (Ki), gt 1b A156V mutant; assay type: biochemical, hepatitis C virus (HCV)
Experimental: as §1, §2, §3, §4
as §3, with “(1996); Mao et al., Analytical Biochemistry 373: 1-8, 2008. Measuring Compound Inhibitory Potency (Replicon EC50 (nM))” for “(1996).”

Row | SMILES | Ki (NS3/4A protease gt 1b) | Ki (NS3/4A protease gt 3a) | EC50 (gt 1b Replicon; 10% Fetal Bovine Serum, read-out: gt 1b Replicon EC50 10% FBS) | EC50 (gt 1b Replicon; 50% Normal Human Serum, read-out: gt 1b Replicon EC50 50% NHS) | Ki [1]
1 | C=C[C@@H]1C[C@]1(NC(=O)[C@@H]1C[C@@H]2CN1C(=O)[C@H](C(C)(C)C)NC(=O)O[C@@]1(C)C[C@@H]1CCCCCc1nc3ccccc3nc1O2)C(=O)NS(=O)(=O)C1CC1 [Example I-9, (1aS,5S,8S,10R,22aS)-5-tert-butyl-N-{(1R,2S)-1-[(cyclopropylsulfonyl)carbamoyl]-2-ethenylcyclopropyl}-1a-methyl-3,6-dioxo-1,1a,3,4,5,6,9,10,18,19, 20,21,22,22a-tetra decahydro-8H-7,10-methanocyclopropa[18, 19][1,10,3,6]dioxadiaza cyclononadecino[11,12-b]quinoxaline-8-carboxamide] | 0.06 nM | 12.5 nM | – | – | –
2 | CC[C@@H]1C[C@]1(NC(=O)[C@@H]1C[C@@H]2CN1C(=O)[C@H](C(C)(C)C)NC(=O)O[C@]1(C)C[C@H]1CCCCCc1nc3ccc(OC)cc3cc1O2)C(=O)NS(=O)(=O)C1CC1 [Example I-11] | 0.03 nM | 0.5 nM | 4 nM | 7 nM | –
3 | C=C[C@@H]1C[C@]1(NC(=O)[C@@H]1C[C@@H]2CN1C(=O)[C@H](C(C)(C)C)NC(=O)O[C@@]1(C)C[C@@H]1CC/C=C/c1cccc3c1CN(C3)C(=O)O2)C(=O)NS(=O)(=O)C1CC1 [Example I-14, (1aS,5S,8S,10R,19E,22aS)-5-tert-butyl-N-{(1R,2S)-1-[(cyclopropylsulfonyl)carbamoyl]-2-ethenylcyclopropyl}-1a-methyl-3,6,12-trioxo-1,1a,3,4,5,6,9, 10,14,21,22,22a-dodecahydro-8H-7,10:13,15-dimethano cyclopropa[n][4,13,2,8, 11]benzodioxatriaza cyclohenicosine-8(12H)-carboxamide] | 0.08 nM | 112 nM | – | – | 6.3 nM
4 | C=C[C@@H]1C[C@]1(NC(=O)[C@@H]1C[C@@H]2CN1C(=O)[C@H](C(C)(C)C)NC(=O)O[C@]1(C)C[C@H]1CC/C=C/c1cccc3c1CN(C3)C(=O)O2)C(=O)NS(=O)(=O)C1CC1 [Example I-15, (1aR,5S,8S,10R,19E,22aR)-5-tert-butyl-N-{(1R,2S)-1-[(cyclopropylsulfonyl)carbamoyl]-2-ethenylcyclopropyl}-1a-methyl-3,6,12-trioxo-1,1a,3,4,5,6,9, 10,14,21,22,22a-dodecahydro-8H-7,10: 13,15-dimethanocyclo propa[n][4,13,2,8,11] benzodioxatriazacyclo henicosine-8(12H)-carboxamide] | 0.09 nM | 93.5 nM | – | – | 8.9 nM
5 | C=C[C@@H]1C[C@]1(NC(=O)[C@@H]1C[C@@H]2CN1C(=O)[C@H](C1CCCC1)NC(=O)O[C@]1(C)CCC[C@H]1CC/C=C/Cc1c(nc3ccccc3c1OCc1ccccc1)O2)C(=O)NS(=O)(=O)C1CC1 [Example I-17, (3aR,7S,10S,12R,21E, 24aS)-19-(benzyloxy)-7-cyclopentyl-N-{(1R,2S)-1-[(cyclopropylsulfonyl)carbamoyl]-2-ethenylcyclopropyl}-3a-methyl-5,8-dioxo-1,2,3,3a,5,6,7,8,11,12, 20,23,24,24a-tetradeca hydro-10H-9,12-methanocyclopenta[18, 19][1,10,3,6]dioxadiaza cyclononadecino[11,12-b]quinoline-10-carboxamide] | 0.07 nM | 27.9 nM | – | – | 9.6 nM
6 | C=C[C@@H]1C[C@]1(NC(=O)[C@@H]1C[C@@H]2CN1C(=O)[C@H](C(C)(C)C)NC(=O)O[C@]1(C)C[C@H]1CCCCc1cccc3c1CN(C3)C(=O)O2)C(=O)NS(=O)(=O)C1CC1 [Example I-20, (1aR,5S,8S,10R,22aR)-5-tert-butyl-N-{(1R,2S)-1-[(cyclopropylsulfonyl)carbamoyl]-2-ethenylcyclopropyl}-1a-methyl-3,6,12-trioxo-1,1a,3,4,5,6,9, 10,14,19,20,21,22,22a-tetradecahydro-8H-7,10:13,15-dimethano cyclopropa[n][4,13,2,8, 11]benzodioxatriaza cyclohenicosine-8(12H)-carboxamide] | 0.02 nM | 58.3 nM | – | – | 27.2 nM
7 | C=C[C@@H]1C[C@]1(NC(=O)[C@@H]1C[C@@H]2CN1C(=O)[C@H](C(C)(C)C)NC(=O)O[C@@]1(C)C[C@@H]1CCCCc1cccc3c1CN(C3)C(=O)O2)C(=O)NS(=O)(=O)C1CC1 [Example I-21, (1aS,5S,8S,10R,22aS)-5-tert-butyl-N-{(1R,2S)-1-[(cyclopropylsulfonyl)carbamoyl]-2-ethenylcyclopropyl}-1a-methyl-3,6,12-trioxo-1,1a,3,4,5,6,9,10,14,19,20,21,22,22a-tetradecahydro-8H-7,10:13,15-dimethano cyclopropa[n][4,13,2,8, 11]benzodioxatriaza cyclohenicosine-8(12H)-carboxamide] | 1.4 nM | 300 nM | – | – | 8.1 nM
8 | C=C[C@@H]1C[C@]1(NC(=O)[C@@H]1C[C@@H]2CN1C(=O)[C@H](C1CCCC1)NC(=O)O[C@@]1(C)C[C@@H]1CC/C=C/Cn1c(nc3cc(C)ccc3c1=O)O2)C(=O)NS(=O)(=O)C1CC1 [Example I-22, (1aS,5S,8S,10R,20E,23aS)-5-cyclopentyl-N-{(1R,2S)-1-[(cyclopropylsulfonyl)carbamoyl]-2-ethenylcyclopropyl}-1a,14-dimethyl-3,6,17-trioxo-1,1a,3,4,5,6,9,10,19,22,23,23a-dodecahydro-8H,17H-7,10-methano cyclopropa[18,19] [1,10,3,6,12]dioxatriaza cyclononadecino[11,12-b]quinazoline-8-carboxamide] | 0.3 nM | 82.2 nM | – | – | 135 nM
